# Data: patent publication US10800757B2, “Inhibitors of TRPC6” (Boehringer Ingelheim International GmbH, priority 2017, dated 2020)
# Structures can show the parent of a compound that is named as a salt.
# Target: TRPC6 (Homo sapiens (Human), UniProt Q9Y210)
# Assay: High throughput screening assay: fluorescent calcium (Fluo4/AM) assay of TRPC6 channel activation by GSK1702934A in HEK293/TREx cells
# Assay type: cell-based
# Conditions: HEK293/TREx cells stably transfected with TRPC6; agonist GSK1702934A; 7 concentrations 20 μM to 0.027 μM, triplicate
# Source text: This screening assay measures TRPC6 (transient receptor potential cation channel, subfamily C, member 6) ion channel activation via addition either of the commercially available DAG ligand analogue OAG (1-oleoyl-2-acetyl-sn-glycerol) or of the TRPC6 agonist 1-[1-(4,5,6,7,8-pentahydrocyclohepta[2,1-d]thiophen-2-ylcarbonyl)-4-piperidyl]-3-hydrobenzimidazol-2-one (GSK1702934A). The assay utilizes a FLIPR fluorescent calcium sensor 4-(6-Acetoxymethoxy-2,7-difluoro-3-oxo-9-xanthenyl)-4′-methyl-2,2′-(ethylenedioxy)dianiline-N,N,N′,N′-tetraacetic acid tetrakis(acetoxymethyl) ester (Fluo4/AM) […]. Changes (increases) in intracellular membrane calcium concentration potential as measured by the fluorescent signal increase during membrane depolarization provide a measurement of channel activity.
# The commercially available HEK293/TREx line (Invitrogen) was stably transfected with a TRPC6 construct and screened by conventional calcium imaging to find clones with TRPC6 expression following stimulation with 1 μg/ml tetracycline. These cells were maintained in the growth medium recommended by the manufacturer supplemented with 100 μg/ml hygromycin to promote retention of the TRPC6 construct. After growing to near confluency, cells were plated at a density of ^˜35,000 cells/well in 384 well CellBind plates (Corning) in the presence of 1 μg/ml tetracycline, and allowed to grow for 20-30 hrs. A nearly confluent monolayer resulted. Growth media was removed from the wells and cells were then loaded with […] Fluo4/AM diluted in Ringer's Solution (6.5 g NaCl, 0.42 g KCl, 0.25 g CaCl2) and 0.2 g of sodium bicarbonate; pH 7.4) supplemented with 1% Pluronic F-127 to a final concentration of 0.5 μM and incubated for 60 min, at room temperature. Dye solution was then removed from the cells by inverting plates with a sharp flick, and replaced with 25 μl Ringer's. Following ^˜0.5 hour for recovery from loading, cells were assayed using the Hamamatsu FDSS 6000 system, which permitted illumination at 485 nm. Frames were acquired at a rate of 0.2 Hz. During the assay, the plates were continuously vortexed, with pipette mixing of wells following addition of each reagent. For the screening assay, 26 μl of a diluted compound stock (at 50 μM) was added to each well for 2 minutes following the collection of a short (4 frame) baseline. 13 μl of agonist solution consisting of 125 nM GSK1702934A diluted in high-Ca2+Ringer solution (containing 90 mm Ca2+) was then added to each well, achieving a final concentration of 20 mm Ca2+ and 10 μM test compound. Data was collected for ^˜3 minutes following addition of high Ca2+Ringer. The fluorescent ratio for each well was divided by the initial fluorescent intensity for that well and the overall response was determined by averaging the fluorescent ratio of the last 4 frames acquired during the experiment excepting the final frame. Negative and Positive controls were included on each plate. Negative controls wells consisted of HEK293/TREx TRPC6 cells exposed to assay buffer and agonist solution, but no test compound. Positive control consisted of wells consisted of HEK293/TREx TRPC6 cells exposed to 25 μM 3-[(2-chlorophenoxy)methyl]phenyl piperidyl ketone (Chembridge) diluted in Ringer's solution and agonist solution. These controls defined zero percent and 100 percent block respectively, and intensity of each well was normalized to these values.
# Compounds were tested in triplicate at all concentrations. Standard software was used to fit IC50 curves.
# TRPC6, sequence (Q9Y210 whole entry, species assumed): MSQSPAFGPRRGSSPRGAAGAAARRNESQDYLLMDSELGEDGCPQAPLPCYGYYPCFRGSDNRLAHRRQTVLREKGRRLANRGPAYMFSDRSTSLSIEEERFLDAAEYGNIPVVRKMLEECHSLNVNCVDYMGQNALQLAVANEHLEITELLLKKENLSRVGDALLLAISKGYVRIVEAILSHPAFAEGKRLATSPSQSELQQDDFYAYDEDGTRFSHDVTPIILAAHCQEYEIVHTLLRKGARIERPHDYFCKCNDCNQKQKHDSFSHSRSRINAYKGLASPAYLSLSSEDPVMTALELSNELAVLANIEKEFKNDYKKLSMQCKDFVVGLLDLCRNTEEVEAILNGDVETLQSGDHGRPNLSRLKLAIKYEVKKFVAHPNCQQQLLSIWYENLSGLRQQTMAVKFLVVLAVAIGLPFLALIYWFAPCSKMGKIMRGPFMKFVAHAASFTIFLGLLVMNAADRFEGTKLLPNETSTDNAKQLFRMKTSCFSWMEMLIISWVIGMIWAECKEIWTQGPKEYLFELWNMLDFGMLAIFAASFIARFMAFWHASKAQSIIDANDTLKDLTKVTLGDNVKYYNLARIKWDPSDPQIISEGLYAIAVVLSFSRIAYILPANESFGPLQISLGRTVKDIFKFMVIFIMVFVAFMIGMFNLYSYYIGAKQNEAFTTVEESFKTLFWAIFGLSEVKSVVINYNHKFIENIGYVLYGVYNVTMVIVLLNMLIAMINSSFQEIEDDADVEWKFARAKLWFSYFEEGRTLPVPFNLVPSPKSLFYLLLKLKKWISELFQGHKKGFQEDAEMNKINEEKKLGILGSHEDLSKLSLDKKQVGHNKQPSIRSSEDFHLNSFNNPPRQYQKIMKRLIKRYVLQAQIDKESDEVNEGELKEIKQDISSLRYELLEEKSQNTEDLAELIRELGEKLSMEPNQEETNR
row,SMILES,IC50 [nM]
1,"COc1cc(C(=O)N2CCC(c3nnc(N)cc3C)CC2)ncc1Oc1ccc(F)cc1 [Compound 29, 6-{-[5-(4-Fluorophenoxy)-4-methoxypyridine-2-carbonyl]piperidin-4-yl}-5-methylpyridazin-3-amine trifluoroacetic acid]",110
2,"COc1cc(C(=O)N2CCC(c3ccc(N)nn3)CC2)ncc1O[C@@H](C)C1CC1 [Compound 79, [4-(6-Amino-pyridazin-3-yl)-piperidin-1-yl]-[5-((S)-1-cyclopropyl-ethoxy)-4-methoxy-pyridin-2-yl]-methanone]",3700
3,"COc1cc(C(=O)N2CCC(c3ccc(N)nn3)CC2)ncc1OCCC1CC1 [Compound 67, [4-(6-Amino-pyridazin-3-yl)-piperidin-1-yl]-[5-(2-cyclopropyl-ethoxy)-4-methoxy-pyridin-2-yl]-methanone]",560
4,"COc1cc(C(=O)N2CCC(c3ccc(N)nn3)CC2)ncc1Oc1ccc(C(F)(F)F)cc1 [Compound 33, [4-(6-Amino-pyridazin-3-yl)-piperidin-1-yl]-[4-methoxy-5-(4-trifluoromethyl-phenoxy)-pyridin-2-yl]-methanone]",82
5,"COc1cc(C(=O)N2CCC(c3cnc(N)cc3OC)CC2)ncc1OCC1CCC1(F)F (centres unmarked) [Compound 95, 5-(1-{5-[(2,2-Difluorocyclobutyl)-methoxy]-4-methoxy-pyridine-2-carbonyl}-piperidin-4-yl)-4-methoxypyridin-2-amine]",445
6,"COc1cc(C(=O)N2CCC(c3ccc(N)nn3)CC2)ncc1Oc1ccccc1 [Compound 16, [4-(6-Amino-pyridazin-3-yl)-piperidin-1-yl]-(4-methoxy-5-phenoxy-pyridin-2-yl)-methanone]",27
7,"COc1cc(C(=O)N2CCN(c3ccc(N)nc3)C[C@@H]2CO)ncc1Oc1ccc(F)cc1 [Compound 20, [(R)-4-(6-Amino-pyridin-3-yl)-2-hydroxymethyl-piperazin-1-yl]-[5-(4-fluoro-phenoxy)-4-methoxy-pyridin-2-yl]-methanone]",42
8,"COc1cc(C(=O)N2CCC(c3ccc(N)nc3)CC2)ncc1Oc1ccc(F)cc1 [Compound 14, (6-Amino-3′,4′,5′,6′-tetrahydro-2′H-[3,4′]bipyridinyl-1′-yl)-[5-(4-fluoro-phenoxy)-4-methoxy-pyridin-2-yl]-methanone]",27
9,"COc1cc(C(=O)N2CCN(c3ccc(N)nc3)CC2)ncc1Oc1ccc(F)cc1 [Compound 13, [4-(6-Amino-pyridin-3-yl)-piperazin-1-yl]-[5-(4-fluoro-phenoxy)-4-methoxy-pyridin-2-yl]-methanone]",27
10,"COc1cc(C(=O)N2CCC(c3ccc(N)nn3)CC2)ncc1Oc1ccc(Cl)cc1 [Compound 34, [4-(6-Amino-pyridazin-3-yl)-piperidin-1-yl]-[5-(4-chloro-phenoxy)-4-methoxy-pyridin-2-yl]-methanone]",85
11,"COc1cc(C(=O)N2CCC(c3cnc(N)cc3OC)CC2)ncc1OC[C@H]1C[C@@H](C(F)(F)F)C1 [Compound 93, TFA salt of 4-Methoxy-5-[1-(4-methoxy-5-{[3-(trifluoromethyl)-cyclobutyl]methoxy}-pyridine-2-carbonyl)piperidin-4-yl]pyridin-2-amin]",595

# Results, then the molecule that gave them:
row,IC50 [nM],SMILES
1,290,"COc1cc(C(=O)N2CCC(c3nnc(N)cc3OC)CC2)ncc1Oc1ccc(C(F)(F)F)cc1 [Compound 56, [4-(6-Amino-4-methoxy-pyridazin-3-yl)-piperidin-1-yl]-[4-methoxy-5-(4-trifluoromethyl-phenoxy)-pyridin-2-yl]-methanone]"
2,250,"COc1cc(C(=O)N2CCC(c3cnc(N)cc3OC)CC2)ncc1OCCC1CC1 [Compound 48, (6-Amino-4-methoxy-3′,4′,5′,6′-tetrahydro-2′H-[3,4′]bipyridinyl-1′-yl)-[5-(2-cyclopropyl-ethoxy)-4-methoxy-pyridin-2-yl]-methanone]"
3,170,"COc1cc(C(=O)N2CCC(c3cnc(N)cc3OC)CC2)ncc1OCC(C)C [Compound 39, 4-Methoxy-5-{1-[4-methoxy-5-(2-methylpropoxy)pyridine-2-carbonyl]piperidin-4-yl}-pyridin-2-amine trifluoroacetic acid]"
4,350,"CCCOc1cc(N)ncc1C1CCN(C(=O)c2cc(OC)c(Oc3ccccc3)cn2)CC1 [Compound 86, (6-Amino-4-propoxy-3′,4′,5′,6′-tetrahydro-2′H-[3,4′]bipyridinyl-1′-yl)-[5-(phenoxy)-4-methoxy-pyridin-2-yl]-methanone]"
5,140,"COc1cc(C(=O)N2CCN(c3cnc(N)cc3OC)C[C@@H]2CO)ncc1Oc1ccc(F)cc1 [Compound 42, [(R)-4-(6-Amino-4-methoxy-pyridin-3-yl)-2-hydroxymethyl-piperazin-1-yl]-[5-(4-fluoro-phenoxy)-4-methoxy-pyridin-2-yl]-methanone]"
6,2200,"COc1cc(C(=O)N2CCC(c3cnc(N)cc3OC)CC2)ncc1O[C@H](C)C1CC1 [Compound 77, (6-Amino-4-methoxy-3′,4′,5′,6′-tetrahydro-2′H-[3,4′]bipyridinyl-1′-yl)-[5-((R)-1-cyclopropyl-ethoxy)-4-methoxy-pyridin-2-yl]-methanone]"
7,630,"COc1cc(C(=O)N2CCN(c3cnc(N)cc3OC)C[C@@H]2CO)ncc1Oc1ccccc1 [Compound 69, [(R)-4-(6-Amino-4-methoxy-pyridin-3-yl)-2-hydroxymethyl-piperazin-1-yl]-(4-methoxy-5-phenoxy-pyridin-2-yl)-methanone]"
8,670,"COc1cc(C(=O)N2CCN(c3cnc(N)cc3OC)C[C@H]2CO)ncc1Oc1ccc(F)cc1 [Compound 63, [(S)-4-(6-Amino-4-methoxy-pyridin-3-yl)-2-hydroxymethyl-piperazin-1-yl]-[5-(4-fluoro-phenoxy)-4-methoxy-pyridin-2-yl]-methanone]"
9,32,"COc1cc(C(=O)N2CCC(c3cnc(N)cc3OC)CC2)ncc1OCc1ccccc1F [Compound 19, (6-Amino-4-methoxy-3′,4′,5′,6′-tetrahydro-2′H-[3,4′]bipyridinyl-1′-yl)-[5-(2-fluoro-benzyloxy)-4-methoxy-pyridin-2-yl]-methanone]"
10,27,"COc1cc(C(=O)N2CCN(c3ccc(N)nc3)CC2)ncc1Oc1ccccc1 [Compound 15, [4-(6-Amino-pyridin-3-yl)-piperazin-1-yl]-(4-methoxy-5-phenoxy-pyridin-2-yl)-methanone]"
11,160,"CCCOc1cnc(C(=O)N2CCC(c3cnc(N)cc3OC)CC2)cc1OC [Compound 46, (6-Amino-4-methoxy-3′,4′,5′,6′-tetrahydro-2′H-[3,4′]bipyridinyl-1′-yl)-(4-methoxy-5-propoxy-pyridin-2-yl)-methanone]"
12,750,"CCOc1cc(C(=O)N2CCC(c3ccc(N)nn3)CC2)ncc1Oc1ccc(F)cc1 [Compound 88, [4-(6-Amino-pyridazin-3-yl)-piperidin-1-yl]-[5-(4-fluoro-phenoxy)-4-ethoxy-pyridin-2-yl]-methanone]"
13,27,"COc1cc(C(=O)N2CCN(c3cnc(N)cc3C)C[C@@H]2CO)ncc1Oc1ccc(F)cc1 [Compound 7, [(R)-4-(6-Amino-4-methyl-pyridin-3-yl)-2-hydroxymethyl-piperazin-1-yl]-[5-(4-fluoro-phenoxy)-4-methoxy-pyridin-2-yl]-methanone]"
14,210,"COc1cc(C(=O)N2CCC(c3cnc(N)cc3OC)CC2)ncc1OCC1CCC1 [Compound 53, (6-Amino-4-methoxy-3′,4′,5′,6′-tetrahydro-2′H-[3,4′]bipyridinyl-1′-yl)-(5-cyclobutylmethoxy-4-methoxy-pyridin-2-yl)-methanone]"
15,67,"COc1cc(C(=O)N2CCC(c3cnc(N)cc3OC)CC2)ncc1Oc1ccc(C(F)(F)F)cc1 [Compound 24, (6-Amino-4-methoxy-3′,4′,5′,6′-tetrahydro-2′H-[3,4′]bipyridinyl-1′-yl)-[4-methoxy-5-(4-trifluoromethyl-phenoxy)-pyridin-2-yl]-methanone]"
